Data reported in ChEMBL document CHEMBL1201862, “PubChem BioAssay data set” (2004).
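Tested at 5 concentrations; 48 h exposure; 96-well plates; endpoints linearly interpolated, else capped at highest concentration. GI50 is the concentration that inhibits growth by half.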 The source made the active and inactive calls. Cut-off read from the data, not from the text of the source: active = GI50 up to about 1.1 µM and inactive = higher.

What was measured:
Assay in all cases: NCI-60 cell line screen, 48 h
DMS-273 = tested on: DMS-273
M19-MEL = tested on: M19-MEL
KM-20L2 = tested on: KM-20L2
LXFL 529 = tested on: LXFL 529
DMS-114 = tested on: DMS-114
XF498 = tested on: XF498
HOP-18 = tested on: HOP-18
SNB-78 = tested on: SNB-78
RXF 631 = tested on: RXF 631

| SMILES | GI50 (DMS-273) | GI50 (M19-MEL) | GI50 (KM-20L2) | GI50 (LXFL 529) | GI50 (DMS-114) | GI50 (XF498) | GI50 (HOP-18) | GI50 (SNB-78) | GI50 (RXF 631) |
| --- | --- | --- | --- | --- | --- | --- | --- | --- | --- |
| COC(=O)c1c/c(=N\NC(=O)CC(=O)Nc2ccc(C)cc2)c2ccccc2o1 | > 100 µM (inactive) | > 100 µM (inactive) | > 100 µM (inactive) | > 100 µM (inactive) | > 100 µM (inactive) | > 100 µM (inactive) | > 100 µM (inactive) | > 100 µM (inactive) | – |
| O=C1Nc2cc(Cl)ccc2N=CC1NC(=O)C(c1ccccc1)c1ccccc1Cl (stereo unspecified) | > 100 µM (inactive) | > 100 µM (inactive) | > 100 µM (inactive) | > 100 µM (inactive) | > 100 µM (inactive) | – | 27.5 µM (inactive) | > 100 µM (inactive) | > 100 µM (inactive) |
| CCN(CC)CC(C(=O)Nc1c(C)cccc1C)/C(C)=N\NC(=O)C[N+](C)(C)C (stereo unspecified) | > 100 µM (inactive) | > 100 µM (inactive) | > 100 µM (inactive) | > 100 µM (inactive) | > 100 µM (inactive) | > 100 µM (inactive) | – | > 100 µM (inactive) | – |
| Cc1cc(NC(=O)NC(=O)c2ccccc2NC(=O)CN)ccc1Oc1ncc(Br)cn1 | 0.313 µM (active) | – | 0.676 µM (active) | 1.73 µM (inactive) | 0.191 µM (active) | 13.9 µM (inactive) | – | – | – |
| O=C(Cc1ccccc1)N/N=C(/c1nc2ccc([N+](=O)[O-])cc2nc1O)C(O)c1ccco1 (stereo unspecified) | – | > 100 µM (inactive) | – | 87.9 µM (inactive) | 46.8 µM (inactive) | > 100 µM (inactive) | > 100 µM (inactive) | > 100 µM (inactive) | – |
| O=C(Nc1ccc(Cl)c(Cl)c1)C(=O)Nn1c(S)nc2ccccc2c1=O | > 100 µM (inactive) | > 100 µM (inactive) | > 100 µM (inactive) | > 100 µM (inactive) | > 100 µM (inactive) | > 100 µM (inactive) | > 100 µM (inactive) | > 100 µM (inactive) | – |
| CC1NOC(=O)C1/N=N/c1ccc(Cl)cc1Cl (stereo unspecified) | 20.9 µM (inactive) | 27.2 µM (inactive) | 30.6 µM (inactive) | 21.9 µM (inactive) | 24.2 µM (inactive) | 23.1 µM (inactive) | 18.5 µM (inactive) | 26.3 µM (inactive) | 38.2 µM (inactive) |
| N/N=C(\CC1OC(=O)c2ccccc21)c1ccco1 (stereo unspecified) | > 100 µM (inactive) | > 100 µM (inactive) | > 100 µM (inactive) | > 100 µM (inactive) | > 100 µM (inactive) | – | < 0.01 µM (active) | – | – |
| CC(C)(C)c1cc(Oc2ccc(C#N)c(C#N)c2)cc(C(C)(C)C)c1 | 14.1 µM (inactive) | > 100 µM (inactive) | > 100 µM (inactive) | > 100 µM (inactive) | 42.1 µM (inactive) | > 100 µM (inactive) | > 100 µM (inactive) | > 100 µM (inactive) | 31 µM (inactive) |
| Cc1cc(=O)oc2cc(OCc3nc4ccccc4c(=O)n3-c3ccccc3)ccc12 | > 100 µM (inactive) | > 100 µM (inactive) | > 100 µM (inactive) | > 100 µM (inactive) | > 100 µM (inactive) | – | > 100 µM (inactive) | – | > 100 µM (inactive) |
| CC(C)C1CO[C@]2(C)CCC(=O)N12 (stereo partly specified) | – | > 100 µM (inactive) | > 100 µM (inactive) | > 100 µM (inactive) | > 100 µM (inactive) | > 100 µM (inactive) | > 100 µM (inactive) | – | > 100 µM (inactive) |
| Cn1c(=O)c2[nH]cnc2n(CC(N)=O)c1=O | > 100 µM (inactive) | > 100 µM (inactive) | – | > 100 µM (inactive) | > 100 µM (inactive) | > 100 µM (inactive) | – | > 100 µM (inactive) | – |
| O=c1n(CC2CO2)c(=O)n(CC2CO2)c(=O)n1CC1CO1 (stereo unspecified) [TEROXIRONE] | 1.16 µM (inactive) | 53.7 µM (inactive) | 68.5 µM (inactive) | – | 11.4 µM (inactive) | – | 91.8 µM (inactive) | 110 µM (inactive) | – |
| O=C(CO[N+](=O)[O-])OCC(=O)c1ccccc1 | > 100 µM (inactive) | > 100 µM (inactive) | > 100 µM (inactive) | > 100 µM (inactive) | – | – | – | – | > 100 µM (inactive) |
| CN1CCN(CCNc2ccc(CO)c3sc4ccccc4c(=O)c23)CC1 | 3.21 µM (inactive) | 12.2 µM (inactive) | 4.21 µM (inactive) | 9.71 µM (inactive) | 9.57 µM (inactive) | – | – | – | – |
| Cc1ccc(C)c(NC(=O)c2cc(-c3ccc([N+](=O)[O-])cc3)nc(N)n2)c1 | > 100 µM (inactive) | > 100 µM (inactive) | > 100 µM (inactive) | > 100 µM (inactive) | > 100 µM (inactive) | > 100 µM (inactive) | > 100 µM (inactive) | – | – |
| COc1ccc(-c2cc(Cc3cccs3)c(=O)[nH]n2)cc1 | > 100 µM (inactive) | 40.3 µM (inactive) | 85.5 µM (inactive) | 53.8 µM (inactive) | 74.6 µM (inactive) | – | – | > 100 µM (inactive) | – |
| O=C(CC(=O)Nc1cccc(Cl)c1)NNCC(=O)Nc1nnc(-c2ccccc2)s1 | 38.4 µM (inactive) | > 100 µM (inactive) | > 100 µM (inactive) | 41.3 µM (inactive) | 24.4 µM (inactive) | 17.7 µM (inactive) | 3.62 µM (inactive) | 97.9 µM (inactive) | > 100 µM (inactive) |
| COc1ccc2c(CCNS(=O)(=O)c3ccccc3)c(C(C)=O)[nH]c2c1[N+](=O)[O-] | > 100 µM (inactive) | – | > 100 µM (inactive) | > 100 µM (inactive) | – | – | – | 48.5 µM (inactive) | 41.4 µM (inactive) |
| C=Cc1cc(OC)c2c(c1)c(=O)oc1c2cc(OC)c2c(O)ccc(C3OC(C)C(O)C(C)(O)C3O)c21 (stereo unspecified) | 0.0545 µM (active) | 0.0614 µM (active) | 0.041 µM (active) | – | 0.0225 µM (active) | 0.0252 µM (active) | 0.053 µM (active) | – | – |
| Clc1ccc(-n2nnc(C3=NCCCN3)c2-c2ccccc2)cc1 | > 100 µM (inactive) | > 100 µM (inactive) | > 100 µM (inactive) | > 100 µM (inactive) | > 100 µM (inactive) | > 100 µM (inactive) | > 100 µM (inactive) | > 100 µM (inactive) | – |
| CC(C)C(Nc1c2ccccc2[n+]([O-])c2ccccc12)C(=O)O (stereo unspecified) | 61.9 µM (inactive) | 88.5 µM (inactive) | > 100 µM (inactive) | 32.4 µM (inactive) | 36.2 µM (inactive) | – | 19.4 µM (inactive) | > 100 µM (inactive) | > 100 µM (inactive) |
| COc1cccc(-c2cc(C(=O)Nc3ccc(Cl)cc3)nc(N)n2)c1 | 85.7 µM (inactive) | 45.7 µM (inactive) | 61.4 µM (inactive) | 52.7 µM (inactive) | 30.6 µM (inactive) | 93.8 µM (inactive) | > 100 µM (inactive) | > 100 µM (inactive) | – |
| COc1ccc(-c2cc(-c3ccccc3)c(C#N)c(=O)[nH]2)cc1 | > 100 µM (inactive) | > 100 µM (inactive) | > 100 µM (inactive) | > 100 µM (inactive) | > 100 µM (inactive) | – | > 100 µM (inactive) | > 100 µM (inactive) | > 100 µM (inactive) |
| CCOC(=O)C(=Cc1ccc(C(=O)OC)cc1)C(=O)OCC | 1.71 µM (inactive) | 2.75 µM (inactive) | 0.845 µM (active) | 1.75 µM (inactive) | 1.66 µM (inactive) | – | 3.49 µM (inactive) | – | – |
| Nn1c(S)nnc1NNC(=O)C(=O)Nc1cc(Cl)c(Cl)cc1Cl | – | > 100 µM (inactive) | > 100 µM (inactive) | > 100 µM (inactive) | > 100 µM (inactive) | 90.4 µM (inactive) | 71.1 µM (inactive) | > 100 µM (inactive) | – |
| CCOc1ccc(NC(=O)/C(Cc2nc3ccccc3nc2O)=N\O)cc1 | > 100 µM (inactive) | > 100 µM (inactive) | > 100 µM (inactive) | > 100 µM (inactive) | > 100 µM (inactive) | – | – | > 100 µM (inactive) | – |
| [N-]=[N+]=CC(=O)C1(C(=O)C=[N+]=[N-])CC1 | > 100 µM (inactive) | > 100 µM (inactive) | > 100 µM (inactive) | > 100 µM (inactive) | > 100 µM (inactive) | > 100 µM (inactive) | > 100 µM (inactive) | > 100 µM (inactive) | – |
| CCOC(=O)C1S/C(=N\c2ccc(Cl)cc2)N=C1C (stereo unspecified) | – | 17.3 µM (inactive) | 19.2 µM (inactive) | > 10 µM (inactive) | 23.8 µM (inactive) | 20 µM (inactive) | 23.3 µM (inactive) | 29.2 µM (inactive) | – |
